Assay results as given in ChEMBL document CHEMBL1127586, “Central cholinergic agents. 6. Synthesis and evaluation of 3-[1-(phenylmethyl)-4-piperidinyl]-1-(2,3,4,5-tetrahydro-1H-1-benzazepi n-8-yl)-1-propanones and their analogs as central selective acetylcholinesterase inhibitors” (J Med Chem, 1994).
Values joined by “and” are separate entries in the source; they are usually repeats but may differ in a detail not shown here. Equal values may be shown once.

Experiments:
[1] = target: T1, Acetylcholinesterase (Rattus norvegicus, UniProt P37136)
T1 sequence (P37136 whole entry): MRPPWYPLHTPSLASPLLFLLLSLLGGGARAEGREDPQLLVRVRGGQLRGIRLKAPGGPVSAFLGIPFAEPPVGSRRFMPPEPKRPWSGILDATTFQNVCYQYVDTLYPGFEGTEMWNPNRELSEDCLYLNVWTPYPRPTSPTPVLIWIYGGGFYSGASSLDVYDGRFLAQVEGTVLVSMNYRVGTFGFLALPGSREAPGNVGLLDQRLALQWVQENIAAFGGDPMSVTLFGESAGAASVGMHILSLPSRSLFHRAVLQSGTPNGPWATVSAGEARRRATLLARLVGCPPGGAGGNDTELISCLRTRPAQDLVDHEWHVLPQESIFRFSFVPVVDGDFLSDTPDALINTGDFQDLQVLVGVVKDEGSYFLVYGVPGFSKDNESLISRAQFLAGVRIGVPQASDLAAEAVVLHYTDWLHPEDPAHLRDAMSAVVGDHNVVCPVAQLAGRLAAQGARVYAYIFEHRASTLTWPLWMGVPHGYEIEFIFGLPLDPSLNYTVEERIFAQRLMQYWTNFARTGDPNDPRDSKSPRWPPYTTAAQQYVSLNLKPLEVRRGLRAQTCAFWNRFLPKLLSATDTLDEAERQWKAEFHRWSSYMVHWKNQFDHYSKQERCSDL
Description: Inhibition of acetylcholinesterase (AChE)

[2] = organism: Rattus norvegicus; settings: dose 10 mg/kg; route oral
Description: Number of circlings observed for 30 min at 10 mg/kg orally administered dose in rats

[3] = tested on: Rattus norvegicus; assay: Number of circlings observed for 30 min at 3 mg/kg orally administered dose in rats; assay type: functional; settings: route oral
[4] = tested on: Rattus norvegicus; assay: Peripheral cholinergic effects in male wistar rats when administered orally at a dose of 10 mg/Kg.; assay type: functional, organism-based
[5] = tested on: Rattus norvegicus; assay: Peripheral cholinergic effects in male wistar rats when administered orally at a dose of 3 mg/Kg.; assay type: functional, organism-based
[6] = tested on: Rattus norvegicus; assay: Effect of compound on peripheral cholinergic effects in male wistar rats when administered orally at a dose of 10 mg/Kg; fasciculation, lacrimation; assay type: functional, organism-based
[7] = tested on: Rattus norvegicus; assay: Effect of compound on peripheral cholinergic effects in male wistar rats when administered orally at a dose of 30 mg/Kg; fasciculation, lacrimation; assay type: functional, organism-based
[8] = tested on: Rattus norvegicus; assay: Effect of compound on peripheral cholinergic effects in male wistar rats when administered orally at a dose of 30 mg/Kg; fasciculation, salivation; assay type: functional, organism-based
[9] = LD50/MED ratio; assay type: ADME; settings: read-out: Therapeutic index
[10] = organism: Rattus norvegicus; assay: Inhibition of circling behavior, percentage of control was reported; (p<0.05); assay type: functional; set-up: scale not given: the % may be the effect or the level left
[11] = tested on: Rattus norvegicus; assay: Number of circlings observed for 30 min at 1 mg/kg orally administered dose in rats; assay type: functional; settings: route oral
[12] = organism: Rattus norvegicus; assay: animal or person; settings: po
Description: Tested for effective inhibition by peroral administration

[13] = organism: Rattus norvegicus
Description: Ameliorating effects on diazepam-induced memory impairment of passive avoidance response (no of rats) by peroral administration

[14] = Acute toxicity in rat by peroral administration; assay type: organism-based; settings: in vivo, po
[15] = ED50/MED ratio; assay type: functional
[16] = organism: Rattus norvegicus; assay: animal or person; settings: read-out: MED
Description: Ameliorating effects on diazepam-induced memory impairment of passive avoidance response (no of rats)

[17] = tested on: Rattus norvegicus; assay: Effect of compound on peripheral cholinergic effects in male wistar rats when administered orally at a dose of 1 mg/Kg; No significant change; assay type: functional, organism-based
[18] = tested on: Rattus norvegicus; assay: Effect of compound on peripheral cholinergic effects in male wistar rats when administered orally at a dose of 3 mg/Kg; salivation; assay type: functional, organism-based
[19] = tested on: Rattus norvegicus; assay: Effect of compound on peripheral cholinergic effects in male wistar rats when administered orally at a dose of 10 mg/Kg; salivation; assay type: functional, organism-based
[20] = tested on: Rattus norvegicus; assay: Effect of compound on peripheral cholinergic effects in male wistar rats when administered orally at a dose of 30 mg/Kg; […]; assay type: functional, organism-based
[21] = tested on: Rattus norvegicus; assay: Effect of compound on peripheral cholinergic effects in male wistar rats when administered orally at a dose of 3 mg/Kg; fasciculation; assay type: functional, organism-based
[22] = tested on: Rattus norvegicus; assay: Effect of compound on peripheral cholinergic effects in male wistar rats when administered orally at a dose of 10 mg/Kg; fasciculation, salivation; assay type: functional, organism-based
[23] = tested on: Rattus norvegicus; assay: Effect of compound on peripheral cholinergic effects in male wistar rats when administered orally at a dose of 30 mg/Kg; fasciculation, diarrhea; assay type: functional, organism-based
[24] = tested on: Rattus norvegicus; assay: Effect of compound on peripheral cholinergic effects in male wistar rats when administered orally at a dose of 30 mg/Kg; fasciculation, lacrimation, salivation; assay type: functional, organism-based

Compound	IC50 [1]	No. of circlings [3]	Activity [4]	Activity [5]	other results
O=C(CCC1CCN(Cc2cccc(Cl)c2)CC1)c1ccc2c(c1)CCCN2Cc1ccccc1	164 nM				No. of circlings [2]: 88
CN1CCCCc2ccc(C(=O)CCC3CCN(Cc4ccccc4)CC3)cc21		100.3	Fasciculation	No activity	
O=C(CCC1CCN(Cc2ccc(F)cc2)CC1)c1ccc2c(c1)NCCCC2	393 nM				
COc1ccccc1CN1CCC(CCC(=O)c2ccc3c(c2)CCN3)CC1	812 nM				
O=C(CCC1CCN(Cc2ccc(F)cc2)CC1)c1ccc2c(c1)CCN2	89 nM	107.4		No activity	Activity [6]: Fasciculation, Lacrimation; Activity [7]: Fasciculation, Lacrimation
O=C(CCC1CCN(Cc2ccccc2)CC1)c1ccc2c(c1)CCCCN2		94.7	Fasciculation	No activity	Activity [8]: Fasciculation, Salivation
O=C(CCC1CCN(Cc2cccc(Cl)c2)CC1)c1ccc2c(c1)CCN2	59 nM				No. of circlings [2]: 94.9
O=C(CCC1CCN(Cc2ccccc2)CC1)c1ccc2c(c1)NCCCC2 [ZANAPEZIL]	97.7 nM	75.1	Fasciculation	No activity	selectivity ratio [9]: 334; Control [10]: 69.9%; No. of circlings [11]: 87.5; ED50 [12]: 10.2 mg/kg; Avoidance time [13]: 106.6 s and 192.2 s and 193.2 s; LD50 [14]: 334 mg/kg; Central selectivity [15]: 10.2; minimal effective dose [16]: 1 mg/kg; Activity [7]: Fasciculation, Lacrimation
O=C(CCC1CCN(Cc2cccc(F)c2)CC1)c1ccc2c(c1)CCN2		84.3	Fasciculation	No activity	
COc1cccc(CN2CCC(CCC(=O)c3ccc4c(c3)CCN4)CC2)c1	2680 nM				
Cc1cccc(CN2CCC(CCC(=O)c3ccc4c(c3)CCN4)CC2)c1		104	Fasciculation	No activity	
O=C(CCC1CCN(Cc2ccccc2)CC1)c1ccc2c(c1)NCCCCC2					Activity [6]: Fasciculation, Lacrimation; Activity [17]: No activity; No. of circlings [11]: 60.7; Activity [18]: Salivation; Activity [7]: Fasciculation, Lacrimation
O=C(CCC1CCN(Cc2ccccc2Cl)CC1)c1ccc2c(c1)CCN2	76 nM				No. of circlings [2]: 67.5
O=C(CCC1CCN(Cc2cccc(F)c2)CC1)c1ccc2c(c1)NCCCC2		98.4	Fasciculation	No activity	Activity [7]: Fasciculation, Lacrimation
O=C(CCC1CCN(Cc2ccccc2F)CC1)c1ccc2c(c1)CCN2	43 nM			No activity	Activity [8]: Fasciculation, Salivation; Activity [19]: Salivation; No. of circlings [2]: 86.7
O=C(CCC1CCN(Cc2ccccc2)CC1)c1ccc2c(c1)N(Cc1ccccc1)CCCC2	3140 nM				
O=C(CCC1CCN(Cc2ccc(Cl)cc2)CC1)c1ccc2c(c1)CCN2	6360 nM				
Cc1cccc(CN2CCC(CCC(=O)c3ccc4c(c3)NCCCC4)CC2)c1	224 nM			No activity	No. of circlings [2]: 61.4; Activity [20]: Fasciculation
O=C(CCC1CCN(Cc2ccccc2)CC1)c1ccc2c(c1)NCC2					No. of circlings [11]: 107.9
CCCN1CCc2cc(C(=O)CCC3CCN(Cc4ccccc4)CC3)ccc21					No. of circlings [2]: 81

Compound	IC50 [1]	No. of circlings [3]	Activity [4]	Activity [5]	other results
O=C(CCC1CCN(Cc2ccccc2)CC1)c1ccc2c(c1)N(Cc1ccccc1)CCC2	1490 nM				
O=C(CCC1CCN(Cc2ccccc2)CC1)c1ccc2c(c1)N(Cc1ccccc1)CC2	853 nM				
O=C(CCC1CCN(Cc2ccccc2)CC1)c1ccc2c(c1)CCN2		52.4		No activity	Activity [6]: Fasciculation, Lacrimation; Activity [7]: Fasciculation, Lacrimation
O=C(CCC1CCN(Cc2cccc(Cl)c2)CC1)c1ccc2c(c1)CCCN2	54 nM	77.4	Fasciculation		Activity [17]: No activity; No. of circlings [11]: 70.1; Activity [21]: Fasciculation; Activity [7]: Fasciculation, Lacrimation
CCCN1CCCCc2ccc(C(=O)CCC3CCN(Cc4ccccc4)CC3)cc21	1330 nM				
O=C(CCC1CCN(Cc2cccc([N+](=O)[O-])c2)CC1)c1ccc2c(c1)CCN2					No. of circlings [2]: 91.1
CCCCCN1CCc2cc(C(=O)CCC3CCN(Cc4ccccc4)CC3)ccc21		79		No activity	Activity [22]: Fasciculation, Salivation
CN1CCCc2ccc(C(=O)CCC3CCN(Cc4ccccc4)CC3)cc21		105.6	Fasciculation	No activity	Activity [7]: Fasciculation
COc1cccc(CN2CCC(CCC(=O)c3ccc4c(c3)NCCCC4)CC2)c1	847 nM				
CCN1CCCCc2ccc(C(=O)CCC3CCN(Cc4ccccc4)CC3)cc21	376 nM				
CCCCN1CCc2cc(C(=O)CCC3CCN(Cc4ccccc4)CC3)ccc21		86.4	Fasciculation	No activity	Activity [23]: Fasciculation, Diarrhea
O=C(CCC1CCN(Cc2ccccc2)CC1)c1ccc2c(c1)CCN2Cc1ccccc1		66.8	Fasciculation	No activity	Activity [7]: Fasciculation, Lacrimation
O=C(CCC1CCN(Cc2cccc(Cl)c2)CC1)c1ccc2c(c1)NCCCC2	333 nM				
COc1ccccc1CN1CCC(CCC(=O)c2ccc3c(c2)NCCCC3)CC1	2620 nM				
CN1CCCc2cc(C(=O)CCC3CCN(Cc4cccc(Cl)c4)CC3)ccc21	24 nM	54.5			Activity [6]: Fasciculation, Lacrimation; Control [10]: 58%; Activity [17]: No activity; No. of circlings [11]: 76.5; Activity [24]: Fasciculation, Lacrimation, Salivation; Activity [21]: Fasciculation
CCN1CCc2cc(C(=O)CCC3CCN(Cc4ccccc4)CC3)ccc21		89.7	Fasciculation	No activity	Activity [8]: Fasciculation, Salivation
CN1CCc2cc(C(=O)CCC3CCN(Cc4ccccc4)CC3)ccc21		68.7		No activity	Activity [6]: Fasciculation, Lacrimation; Control [10]: 56.4%; Activity [24]: Fasciculation, Lacrimation, Salivation; No. of circlings [2]: 51.9
O=C(CCC1CCN(Cc2cccc([N+](=O)[O-])c2)CC1)c1ccc2c(c1)NCCCC2	390 nM				
O=C(CCC1CCN(Cc2ccccc2)CC1)c1ccc2c(c1)NCCC2		60.5	Fasciculation	No activity	
